What was measured:
[1] = Half life in Sprague-Dawley rat plasma at 1 mg/kg; format: ADME, organism-based; parameters: dose 1 mg/kg
[2] = system: Human immunodeficiency virus 1; assay: Antiviral activity against Human immunodeficiency virus 1 Ba-L by in human HOS cells assessed as inhibition of viarl entry by luciferase reporter gene assay; format: functional, organism-based
[3] = Clearance in Sprague-Dawley rat plasma at 1 mg/kg; format: ADME, organism-based; parameters: dose 1 mg/kg
[4] = Metabolic stability of the compound in Sprague-Dawley rat plasma assessed as compound remaining at 1 mg/kg after 30 mins; format: ADME, organism-based; parameters: dose 1 mg/kg; conditions: read-out: Stability
[5] = Metabolic stability of the compound in Sprague-Dawley rat plasma assessed as compound remaining at 1 mg/kg after 10 mins; format: ADME, organism-based; parameters: dose 1 mg/kg; conditions: read-out: Stability
[6] = (§1) Metabolic stability of the compound in Sprague-Dawley rat plasma assessed as compound remaining at 1 mg/kg after 60 mins; format: ADME, organism-based; parameters: dose 1 mg/kg; conditions: Sprague-Dawley, plasma, read-out: Stability
[7] = (§2) Metabolic stability of the compound in Sprague-Dawley rat plasma assessed as compound remaining at 1 mg/kg after 45 mins; format: ADME, organism-based; parameters: dose 1 mg/kg; conditions: Sprague-Dawley, plasma, read-out: Stability
[8] = Oral bioavailability in Sprague-Dawley rat plasma at 1 mg/kg; format: ADME, organism-based
[9] = system: Human immunodeficiency virus 1; assay: Antiviral activity against Human immunodeficiency virus 1 Ba-L in human PBL cells assessed as inhibition of viral replication; format: functional, organism-based
[10] = Metabolic stability of the compound in Sprague-Dawley rat plasma assessed as compound remaining at 1 mg/kg after 5 mins; format: ADME, organism-based; parameters: dose 1 mg/kg; conditions: read-out: Stability
[11] = Metabolic stability of the compound in Sprague-Dawley rat plasma assessed as compound remaining at 1 mg/kg after 20 mins; format: ADME, organism-based; parameters: dose 1 mg/kg; conditions: read-out: Stability
[12] = system: Plasma; assay: Stability of the compound in Sprague-Dawley rat plasma; format: ADME, cell-free
[13] = system: PBL; assay: Cytotoxicity in human PBL cells assessed as cell death up to 1 uM; format: cell-based
[14] = system: HOS; assay: Cytotoxicity in human HOS cells assessed as cell death up to 1 uM; format: cell-based
[15] = system: Plasma; assay: as §1; format: ADME, organism-based; parameters: dose 1 mg/kg; conditions: in vivo, 1 h
[16] = system: Plasma; assay: as §2; format: ADME, organism-based; parameters: dose 1 mg/kg; conditions: in vivo, 0.75 h

| SMILES | IC50 [2] | remaining at 0.5 h [4] | remaining at 10 min [5] | IC50 [9] | remaining at 5 min [10] | remaining at 20 min [11] | Activity [13] | Activity [14] | other results |
| --- | --- | --- | --- | --- | --- | --- | --- | --- | --- |
| Cc1nc(Oc2ccc(NS(C)(=O)=O)cc2)ccc1CN1CCC(N(C(=O)Nc2ccc(C(N)=O)nc2C)c2cccc(F)c2)CC1 | 3.6 nM | 84% | 91% | 3.9 nM | 94% | 95% |  |  | half-life [1]: 2.8 h; clearance [3]: 11.7 mL/min/kg; remaining at 1 h [6]: 71%; remaining at 0.75 h [7]: 74%; bioavailability [8]: 49% |
| Cc1nc(Oc2ccc(NS(C)(=O)=O)cc2)ccc1CN1CCC(N(C(=O)Nc2cnc(C(N)=O)c(F)c2)c2cccc(F)c2)CC1 | 1.2 nM | 26% | 71% | 1.1 nM | 86% | 42% |  |  | remaining at 1 h [6]: 4%; remaining at 0.75 h [7]: 12%; Stability [12]: Unstable |
| Cc1nc(Oc2ccc(NS(C)(=O)=O)cc2F)ccc1CN1CCC(N(C(=O)Nc2ccc(C(N)=O)nc2)c2cccc(F)c2)CC1 | 1.2 nM |  |  | 0.5 nM |  |  | Non-toxic | Non-toxic |  |
| Cc1nc(Oc2ccc(NS(C)(=O)=O)cc2)ccc1CN1CCC(N(C(=O)Nc2cc(F)c(C(N)=O)cc2F)c2cccc(F)c2)CC1 |  |  |  |  |  |  |  |  | half-life [1]: 3.9 h; clearance [3]: 15 mL/min/kg; bioavailability [8]: 53% |
| Cc1cc(NC(=O)N(c2cccc(F)c2)C2CCN(Cc3ccc(Oc4ccc(NS(C)(=O)=O)cc4)nc3C)CC2)cnc1C(N)=O | 1.9 nM | 120% | 88% | 5.3 nM | 90% | 94% |  |  | half-life [1]: 2 h; clearance [3]: 37 mL/min/kg; Stability [15]: 134%; Stability [16]: 123%; bioavailability [8]: 30% |
| Cc1nc(Oc2ccc(NS(C)(=O)=O)cc2Cl)ccc1CN1CCC(N(C(=O)Nc2ccc(C(N)=O)nc2)c2cccc(F)c2)CC1 | 1.2 nM |  |  | 1.1 nM |  |  | Non-toxic | Non-toxic |  |

Further lines, with some results ahead:

| IC50 [2] | remaining at 0.5 h [4] | remaining at 10 min [5] | IC50 [9] | remaining at 5 min [10] | remaining at 20 min [11] | SMILES | Activity [13] | Activity [14] | other results |
| --- | --- | --- | --- | --- | --- | --- | --- | --- | --- |
| 10 nM |  |  |  |  |  | CS(=O)(=O)Nc1ccc(Oc2ccc(CN3CCC(N(C(=O)Nc4ccc(C(N)=O)nc4)c4ccccc4)CC3)cn2)cc1 |  |  |  |
| 1 nM | 25% | 67% | 0.8 nM | 85% | 44% | Cc1nc(Oc2ccc(NS(C)(=O)=O)cc2)ccc1CN1CCC(N(C(=O)Nc2ccc(C(N)=O)nc2)c2cccc(F)c2)CC1 | Non-toxic | Non-toxic | remaining at 1 h [6]: 3%; remaining at 0.75 h [7]: 11% |
| 44 nM |  |  |  |  |  | CS(=O)(=O)Nc1ccc(Oc2ccc(CN3CCC(N(C(=O)Nc4ccc(C#N)nc4)c4ccccc4)CC3)cn2)cc1 |  |  |  |
| 1 nM |  |  | 2.2 nM |  |  | CS(=O)(=O)Nc1ccc(Oc2ccc(CN3CCC(N(C(=O)Nc4ccc(C(N)=O)nc4)c4ccccc4)CC3)c(C3CC3)n2)cc1 | Non-toxic | Non-toxic |  |
| 1 nM |  |  | 0.6 nM |  |  | Cc1cc(NS(C)(=O)=O)ccc1Oc1ccc(CN2CCC(N(C(=O)Nc3ccc(C(N)=O)nc3)c3cccc(F)c3)CC2)c(C)n1 | Non-toxic | Non-toxic |  |
| 2.4 nM |  |  | 0.9 nM |  |  | Cc1nc(Oc2ccc(NS(C)(=O)=O)cc2)ncc1CN1CCC(N(C(=O)Nc2ccc(C(N)=O)nc2)c2cccc(F)c2)CC1 | Non-toxic | Non-toxic |  |

Source: ChEMBL document CHEMBL1914281, “Discovery of novel pyridyl carboxamides as potent CCR5 antagonists and optimization of their pharmacokinetic profile in rats” (Bioorg Med Chem Lett, 2011)
